The source of these data is US20230129359A1, “MUSCARINIC RECEPTOR 4 ANTAGONISTS AND METHODS OF USE” (Neurocrine Biosciences, Inc., priority 2020, published 2023).

The first test concerns the target T1, human M4 receptor (Homo sapiens, UniProt P08173).
T1 construct: expressed in transfected cells; host or cells: CHO cells
T1 sequence (P08173 1-479): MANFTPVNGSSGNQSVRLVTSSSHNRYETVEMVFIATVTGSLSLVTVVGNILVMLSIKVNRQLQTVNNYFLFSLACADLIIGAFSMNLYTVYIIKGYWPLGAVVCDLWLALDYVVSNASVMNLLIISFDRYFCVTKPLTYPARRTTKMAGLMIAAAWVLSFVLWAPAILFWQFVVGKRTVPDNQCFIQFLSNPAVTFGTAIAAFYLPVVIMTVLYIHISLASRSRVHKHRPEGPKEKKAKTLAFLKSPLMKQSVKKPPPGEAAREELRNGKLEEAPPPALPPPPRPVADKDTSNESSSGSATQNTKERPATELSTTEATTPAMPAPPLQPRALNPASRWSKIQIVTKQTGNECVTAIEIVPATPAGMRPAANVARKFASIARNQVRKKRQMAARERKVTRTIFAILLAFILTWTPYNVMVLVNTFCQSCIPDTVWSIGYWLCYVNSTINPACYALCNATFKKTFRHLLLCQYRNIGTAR
In words: Radioligand ([3H]N-methylscopolamine) binding assay, membranes from CHO cells expressing human M4 receptor.
Details: not given
The protocol: Binding affinity (Ki) for the compounds was measured by inhibition of radioligand binding to membranes from CHO cells expressing human M4 receptor. Membranes were prepared by nitrogen cavitation and differential centrifugation as previously described (Hoare et al., Mol. Pharmacol. 2003 March; 63(3): 751-65). The radioligand employed was tritiated N-methylscopolamine, used at a concentration of 1.5 nM. A dose-response of twelve concentrations of compound was used, ranging from […]. The assay buffer was 50 mM HEPES, 100 mM NaCl, 5 mM MgCl2, 1 mM ethylenediaminetetraacetic acid, pH-adjusted to pH 7.4. Membranes, radioligand and compound were incubated together for 90 minutes at 37° C., in a total volume of 150 μL in a 96-well plate. Receptor-bound radioligand was then collected by harvesting the assay over glass fiber filters pretreated with polyethylenimine to trap the cell membranes, using rapid vacuum filtration. Harvesting and radioactivity counting was conducted as previously described (see, e.g., Hoare et al., Mol. Pharmacol. 2003 63(3):751-65); Erratum at Mol. Pharmacol. 2005 July; 68(1): 260).
On to `O=C(OC1CC2(C1)CN(Cc1ccccc1)C2)N1C2COCC1CN(c1cnc(C(F)(F)F)cn1)C2` [Compound 168, 2-benzyl-2-azaspiro[3.3]heptan-6-yl 7-[5-(trifluoromethyl)pyrazin-2-yl]-3-oxa-7,9-diazabicyclo[3.3.1]nonane-9-carboxylate], for which the Ki was 100 to 1000 nM.

Staying with this test, now noted: Ki against human M4 receptor; membranes from CHO cells; tritiated N-methylscopolamine 1.5 nM; read-out: K.
Turning to `C[C@@H]1CN(c2ncc(C(F)(F)F)cn2)C[C@H](C)N1C(=O)OC1CC2(C1)CN(CC1CC3C=CC1C3)C2` (stereo partly drawn) [Compound 155, 2-{bicyclo[2.2.1]hept-5-en-2-ylmethyl}-2-azaspiro[3.3]heptan-6-yl (2R,6S)-2,6-dimethyl-4-[5-(trifluoromethyl)pyrimidin-2-yl]piperazine-1-carboxylate], the Ki fell in the range of 10 to 100 nM.
Take `C[C@@H]1CN(c2ncc(F)cn2)C[C@H](C)N1C(=O)OC1CC2(C1)CN(Cc1ccccc1)C2` [Compound 157, 2-benzyl-2-azaspiro[3.3]heptan-6-yl (2R,6S)-4-(5-fluoropyrimidin-2-yl)-2,6-dimethylpiperazine-1-carboxylate]: the Ki was under 10 nM.
The same measure, in the same setting: then `C[C@@H]1CN(c2ncc(F)cn2)C[C@@H](C)N1C(=O)OC1CC2(C1)CN(Cc1ccccc1)C2` [Compound 158, 2-benzyl-2-azaspiro[3.3]heptan-6-yl (2R,6R)-4-(5-fluoropyrimidin 2-yl)-2,6-dimethylpiperazine-1-carboxylate], with 100 to 1000 nM; and `C[C@@H]1CN(c2ncc(C#N)cn2)C[C@@H](C)N1C(=O)OC1CC2(C1)CN(Cc1ccccc1)C2` [Compound 159, 2-benzyl-2-azaspiro[3.3]heptan-6-yl (2R,6R)-4-(5-cyanopyrimidin-2-yl)-2,6-dimethylpiperazine-1-carboxylate], with 100 to 1000 nM; and `C[C@@H]1CN(c2ccc([N+](=O)[O-])cn2)C[C@H](C)N1C(=O)OC1CC2(C1)CN(Cc1ccccc1)C2` [Compound 163, 2-benzyl-2-azaspiro[3.3]heptan-6-yl (2R,6S)-2,6-dimethyl-4-(5-nitropyridin-2-yl)piperazine-1-carboxylate], with 10 to 100 nM.
`C[C@@H]1CN(c2ccc([N+](=O)[O-])cn2)C[C@@H](C)N1C(=O)OC1CC2(C1)CN(Cc1ccccc1)C2` [Compound 164, 2-benzyl-2-azaspiro[3.3]heptan-6-yl (2R,6R)-2,6-dimethyl-4-(5-nitropyridin-2-yl)piperazine-1-carboxylate]: the Ki fell in the range of 100 to 1000 nM.
The same measure, in the same setting: for `C[C@@H]1CN(c2cncc(C(F)(F)F)n2)C[C@@H](C)N1C(=O)OC1CC2(C1)CN(Cc1ccccc1)C2` [Compound 166, 2-benzyl-2-azaspiro[3.3]heptan-6-yl (2R,6R)-2,6-dimethyl-4-[6-(trifluoromethyl)pyrazin-2-yl]piperazine-1-carboxylate] the value was 100 to 1000 nM; for `O=C(OC1CC2(C1)CN(Cc1ccccc1)C2)N1C2COCC1CN(c1ncc(C(F)(F)F)cn1)C2` [Compound 167, 2-benzyl-2-azaspiro[3.3]heptan-6-yl 7-[5-(trifluoromethyl)pyrimidin-2-yl]-3-oxa-7,9-diazabicyclo[3.3.1]nonane-9-carboxylate], 10 to 100 nM; for `CSc1nc(N2C[C@@H](C)N(C(=O)OC3CC4(C3)CN(Cc3ccccc3)C4)[C@@H](C)C2)ncc1Br` [Compound 169, 2-benzyl-2-azaspiro[3.3]heptan-6-yl (2R,6S)-4-[5-bromo-4-(methylsulfanyl)pyrimidin-2-yl]-2,6-dimethylpiperazine-1-carboxylate], 10 to 100 nM.
Still for that read-out and setting: for `CSc1nc(N2C[C@@H](C)N(C(=O)OC3CC4(C3)CN(Cc3ccccc3)C4)[C@H](C)C2)ncc1Br` [Compound 170, 2-benzyl-2-azaspiro[3.3]heptan-6-yl (2R,6R)-4-[5-bromo-4-(methylsulfanyl)pyrimidin-2-yl]-2,6-dimethylpiperazine-1-carboxylate] the value was 10 to 100 nM.
As to `COC(=O)c1cnc(N2C[C@@H](C)N(C(=O)OC3CC4(C3)CN(Cc3ccccc3)C4)[C@H](C)C2)nc1C(F)(F)F` [Compound 171, methyl 2-[(3R,5R)-4-[({2-benzyl-2-azaspiro[3.3]heptan-6-yl}oxy)carbonyl]-3,5-dimethylpiperazin-1-yl]-4-(trifluoromethyl)pyrimidine-5-carboxylate], the Ki was under 10 nM.
The same measure, in the same setting: then `C[C@@H]1CN(c2cnc3ccccc3n2)C[C@H](C)N1C(=O)OC1CC2(C1)CN(Cc1ccccc1)C2` [Compound 172, 2-benzyl-2-azaspiro[3.3]heptan-6-yl (2R,6S)-2,6-dimethyl-4-(quinoxalin-2-yl)piperazine-1-carboxylate], with 10 to 100 nM; and `COc1ccc2nc(N3C[C@@H](C)N(C(=O)OC4CC5(C4)CN(Cc4ccccc4)C5)C[C@@H]3C)cnc2c1` [Compound 173, 2-benzyl-2-azaspiro[3.3]heptan-6-yl (2R,5S)-4-(6-methoxyquinoxalin-2-yl)-2,5-dimethylpiperazine-1-carboxylate], with 10 to 100 nM; and `Cc1nc(C#N)cnc1N1C[C@@H](C)N(C(=O)OC2CC3(C2)CN(Cc2ccccc2)C3)[C@@H](C)C1` [Compound 181, 2-benzyl-2-azaspiro[3.3]heptan-6-yl (2R,6S)-4-(5-cyano-3-methylpyrazin-2-yl)-2,6-dimethylpiperazine-1-carboxylate], with 100 to 1000 nM.
`C[C@@H]1CN(c2cnc3ccccc3n2)C[C@@H](C)N1C(=O)OC1CC2(C1)CN(Cc1ccccc1)C2` [Compound 185, 2-benzyl-2-azaspiro[3.3]heptan-6-yl (2R,6R)-2,6-dimethyl-4-(quinoxalin-2-yl)piperazine-1-carboxylate]: the Ki was 100 to 1000 nM.
Take `C[C@@H]1CN(c2cnc3ccccc3n2)[C@@H](C)CN1C(=O)OC1CC2(C1)CN(Cc1ccccc1)C2` [Compound 187, 2-benzyl-2-azaspiro[3.3]heptan-6-yl (2R,5S)-2,5-dimethyl-4-(quinoxalin-2-yl)piperazine-1-carboxylate]: the Ki was under 10 nM.
Same read-out and setting: for `C[C@@H]1CN(c2ncccc2C(F)(F)F)C[C@@H](C)N1C(=O)OC1CC2(C1)CN(Cc1ccccc1)C2` [Compound 190, 2-benzyl-2-azaspiro[3.3]heptan-6-yl (2R,6R)-2,6-dimethyl-4-[3-(trifluoromethyl)pyridin-2-yl)piperazine-1-carboxylate] the value was 100 to 1000 nM; for `C[C@@H]1CN(c2ccc(C(F)(F)F)nc2)C[C@H](C)N1C(=O)OC1CC2(C1)CN(Cc1ccccc1)C2` [Compound 191, 2-bnezyl-2-azaspiro[3.3]heptan-6-yl (2R,6S)-2,6-dimethyl-4-[6-(trifluoromethyl)pyridin-3-yl]piperazine-1-carboxylate], 10 to 100 nM; for `C[C@@H]1CN(c2cncc(C(F)(F)F)n2)[C@@H](C)CN1C(=O)OC1CC2(C1)CN(Cc1ccccc1)C2` [Compound 194, 2-benzyl-2-azaspiro[3.3]heptan-6-yl (2R,5S)-2,5-dimethyl-4-[6-(trifluoromethyl)pyrazin-2-yl]piperazine-1-carboxylate], 100 to 1000 nM.
On the same count and under the same terms, for `COc1ccc2nc(N3C[C@@H](C)N(C(=O)OC4CC5(C4)CN(Cc4ccccc4)C5)C[C@H]3C)cnc2c1` [Compound 201, 2-benzyl-2-azaspiro[3.3]heptan-6-yl (2R,5R)-4-(6-methoxyquinoxalin-2-yl)-2,5-dimethylpiperazine-1-carboxylate] the value was 100 to 1000 nM; for `C[C@@H]1CN(c2cnc(OC(F)(F)F)cn2)C[C@H](C)N1C(=O)OC1CC2(C1)CN(Cc1ccccc1)C2` [Compound 202, 2-benzyl-2-azaspiro[3.3]heptan-6-yl (2R,6S)-2,6-dimethyl-4-[5-(trifluoromethoxy)pyrazin-2-yl]piperazine-1-carboxylate], under 10 nM.
On the same count and under the same terms, for `C[C@@H]1CN(c2cnc(OC(F)(F)F)cn2)C[C@@H](C)N1C(=O)OC1CC2(C1)CN(Cc1ccccc1)C2` [Compound 203, 2-benzyl-2-azaspiro[3.3]heptan-6-yl (2R,6R)-2,6-dimethyl-4-[5-(trifluoromethoxy)pyrazin-2-yl]piperazine-1-carboxylate] the value was under 10 nM.
For the compound `C[C@@H]1CN(c2cnc(OC(F)(F)F)cn2)[C@@H](C)CN1C(=O)OC1CC2(C1)CN(Cc1ccccc1)C2` [Compound 204, 2-benzyl-2-azaspiro[3.3]heptan-6-yl (2R,5S)-2,5-dimethyl-4-[5-(tifluoromethoxy)pyrazin-2-yl]piperazine-1-carboxylate], the Ki is under 10 nM.
Same read-out and setting: for `C[C@@H]1CN(c2cnc(OC(F)(F)F)cn2)[C@H](C)CN1C(=O)OC1CC2(C1)CN(Cc1ccccc1)C2` [Compound 205, 2-benzyl-2-azaspiro[3.3]heptan-6-yl (2R,5R)-2,5-dimethyl-4-[5-(trifluoromethoxy)pyrazin-2-yl]piperazine-1-carboxylate] the value was 10 to 100 nM.
